Assays:
Format in all cases: cell-based
osteosarcoma cell U2OS [1] = test: Fluorescence microscopy with DAHMI sensor: accumulation in mitochondria versus BPA; settings: osteosarcoma cells, mitochondria stained with Mito tracker Green FM
Procedure: (§1) The tetraboronic acid compound prepared by the preparation method is subjected to a biological experimental test for further discussing the application of the tetraboronic acid compound as a potential drug of the BNCT. Since the BNCT is mainly used for a head and neck cancer, the experiments are performed using osteosarcoma cell U2OS as a material.
(§2) By utilizing the characteristics that a fluorescence sensor (DAHMI) is stably bonded to boric acid, and a complex compound thereof can emit blue fluorescence, whether the tetraboronic acid compound enters cells or not is observed. The tetraboronic acid compound is firstly added to the osteosarcoma cells to act for 24 hours. Next, after the tetraboronic acid compound is washed away, the fluorescence sensor DAHMI is added and soaked for 20 minutes, and the cells are cleaned with phosphate buffered saline (PBS). Finally, the cell nuclei are stained with a TOTO™-3 dye or the mitochondria are stained with a Mito tracker Green FM dye, and the cells are observed under a fluorescence microscope (Model: Leica DM2500 & DM2500 LED Optical microscopes), and the results are shown in FIG. 2.
Referring to FIG. 3, FIG. 3 is a cell fluorescence micrograph of a tetraboronic acid compound and a clinical drug boronophenylalanine (BPA) according to one embodiment of the present invention.

osteosarcoma cell U2OS [2] = test: Flow cytometry of DAHMI fluorescence content (boron compound content in cells); settings: for Fluorescence content relative to the clinical drug boronophenylalanine: 2.0 mM, ratio to BPA; for Fluorescence content: boron compound 2.0 mM, DAHMI sensor, flow cytometer
Procedure: as §1
The content of the boron atoms in the osteosarcoma cells is further analyzed, and the fluorescence sensor DAHMI in the cells is excited by a flow cytometer (Model: Thermo Fisher Scientific Attune™ NxT Flow Cytometer) to detect the fluorescence content, thereby analyzing the content of the boron compound bonded to the fluorescence sensor DAHMI. After the osteosarcoma cells are treated with the clinical drug boronophenylalanine (BPA), B3 and B9 respectively, the fluorescence content is detected by the flow cytometer.

osteosarcoma cell U2OS [3] = test: Fluorescence microscopy with DAHMI sensor: entry of the tetraboronic acid compound into the cell nucleus; settings: osteosarcoma cells, compound acting 24 hours, 1.0 mM DAHMI at 37° C. for 20 minutes, nuclei stained with TOTO-3
Procedure: as §1, §2
Referring to FIG. 2, FIG. 2 is a cell fluorescence micrograph of a tetraboronic acid compound entering osteosarcoma cells according to one embodiment of the present invention. […]

SMILES | Accumulation in the mitochondria (DAHMI fluorescence brightness level compared with BPA, FIG. 3) (osteosarcoma cell U2OS [1]) | Fluorescence content relative to the clinical drug boronophenylalanine (osteosarcoma cell U2OS [2]) [times] | Fluorescence content (osteosarcoma cell U2OS [2]) [A.u.] | Entry into the cell nucleus (blue DAHMI fluorescence brightness, FIG. 2) (osteosarcoma cell U2OS [3])
O=C(NCc1ccc(B(O)O)cc1)C(c1cccc(B(O)O)c1)N(C(=O)c1ccc(B(O)O)cc1)c1ccc(B(O)O)cc1 (centres unmarked) [Example B3] | more capable of accumulating in the mitochondria than clinical BPA | 1.95 | 4831 | enter the cell nucleus more easily than other compounds
O=C(NCc1ccc(B(O)O)cc1F)C(c1cc(B(O)O)ccc1F)N(C(=O)c1ccc(B(O)O)cc1F)c1ccc(B(O)O)cc1 (centres unmarked) [Example B9] | more capable of accumulating in the mitochondria than clinical BPA | 1.44 | 3568 | enter the cell nucleus more easily than other compounds

Reference: patent publication US10689404B1, “Preparation method of tetraboronic acid compounds, and tetraboronic acid compounds” (Tamkang University, priority 2019, dated 2020)
